The record followed here is article PMC11729419, “Thiol-Reactive or Redox-Active: Revising a Repurposing Screen Led to a New Invalidation Pipeline and Identified a True Noncovalent Inhibitor Against Papain-like Protease from SARS-CoV-2” (ACS Pharmacology & Translational Science, 2024).

In this test the target is SARS-CoV-2 PLpro-NAB (Severe acute respiratory syndrome coronavirus 2, UniProt P0DTD1). The test can be described thus: biochemical. Conditions: for Inhibitory activity on retest in 1 mM L-cysteine: 50% inhibition at 20 μM.
[1] abbreviates: Table S1, 20 µM, DTT buffer, average (SD), read-out: HC PLpro-NAB SARS-CoV-2 inhibition [%] 20 µM triplicates DTT BUFFER.
Setting [2] is: Table S1, 20 µM, L-cysteine buffer, average (SD), read-out: HP PLpro-NAB SARS-CoV-2 inhibition [%] 20 µM triplicates L-CYS BUFFER.
[3] abbreviates: Table S1, DTT buffer, read-out: HP PLpro-NAB SARS-CoV-2 IC50 [µM] triplicates DTT BUFFER.
The mark [4] stands for this setting: Table S1, L-cysteine buffer, read-out: HP PLpro-NAB SARS-CoV-2 IC50 [µM] duplicates L-CYS BUFFER.
Where [5] appears, read: Table S1, 20 µM, DTT buffer, average (SD).
[6] abbreviates: Table S1, 20 µM, L-cysteine buffer, average (SD).
The mark [7] stands for this setting: hit confirmation, 20 μM, 1 mM DTT buffer, average (SD), 20 μM PR619 = 100%, DMSO = 0%.
Setting [8] is: hit profiling, 20 μM, 1 mM L-cys buffer, average (SD), 20 μM PR619 = 100%.
Where [9] appears, read: read-out: HP PLpro-NAB IC50 [μM] duplicates 1 mM L-cys buffer, hit profiling, 1 mM L-cys buffer.
The mark [10] stands for this setting: read-out: HP PLpro-NAB IC50 [μM] triplicates 1 mM DTT buffer, hit profiling, 1 mM DTT buffer.

Where a name gives a salt, the structure may show the parent alone. Read-outs that look alike come from different tables or passages of the source.

On to `CC1(C)CCC2=C(O1)c1ccccc1C(=O)C2=O` [Beta-Lapachone], for which the inhibition at 20 µM by setting is: under setting [1], 175%; under setting [2], -37.4%. Further, the IC50 is 4.71 µM under setting [3] and above 20 µM under setting [4].
On to `Cn1cccc1/C=C1\C(=O)NC(=O)c2ccccc21` [BYK-204165], for which the “HC PLpro-NAB SARS-CoV-2 inhibition [%] 20 µM triplicates DTT BUFFER” value under setting [5] was 137.58 (2.88) %. For the same compound, under setting [6], the “HP PLpro-NAB SARS-CoV-2 inhibition [%] 20 µM triplicates L-CYS BUFFER” value is 7.10 (11.9) %. The IC50 under setting [3] is 6.17 µM and the IC50 under setting [4] was above 20 µM.
`Cc1cc(-c2ccc(/C=C3/SC(=Nc4ccc(Cl)c(C(=O)O)c4)NC3=O)o2)c([N+](=O)[O-])cc1C` [PT 1]: under setting [5], the “HC PLpro-NAB SARS-CoV-2 inhibition [%] 20 µM triplicates DTT BUFFER” value is listed as 87.07 (2.59) %. In addition, the “HP PLpro-NAB SARS-CoV-2 inhibition [%] 20 µM triplicates L-CYS BUFFER” value under setting [6] is listed as -36.09 (5.10) %. The IC50 runs as follows: under setting [3], 9.32 µM; under setting [4], above 20 µM.
With `O=c1c(O)cccc2cc(O)c(O)c(O)c12` [purpurogallin], the IC50 was 1.03 µM (HP PLpro-NAB IC50 [μM] duplicates 1 mM L-cys buffer, hit profiling, 1 mM L-cys buffer) and above 20 µM (HP PLpro-NAB IC50 [μM] triplicates 1 mM DTT buffer, hit profiling, 1 mM DTT buffer).
With `Oc1c(Cl)cc(Cl)c(Cl)c1Cc1c(O)c(Cl)cc(Cl)c1Cl` [Hexachlorophene], the IC50 reads like this: (HP PLpro-NAB SARS-CoV-2 IC50 [µM] duplicates L-CYS BUFFER, Table S1, L-cysteine buffer) above 20 µM; (HP PLpro-NAB SARS-CoV-2 IC50 [µM] triplicates DTT BUFFER, Table S1, DTT buffer) above 20 µM. The inhibition at 20 µM (read-out: HC PLpro-NAB SARS-CoV-2 inhibition [%] 20 µM triplicates DTT BUFFER) was 109% and the inhibition at 20 µM (read-out: HP PLpro-NAB SARS-CoV-2 inhibition [%] 20 µM triplicates L-CYS BUFFER) was -18.3%.
Turning to SF1670, the “HC PLpro-NAB SARS-CoV-2 inhibition [%] 20 µM triplicates DTT BUFFER” value under setting [5] was 183.62 (4.27) %. Further, the “HP PLpro-NAB SARS-CoV-2 inhibition [%] 20 µM triplicates L-CYS BUFFER” value under setting [6] is reported as -32.73 (4.18) %. Further, the IC50 under setting [3] came to 0.25 µM and the IC50 under setting [4] was above 20 µM.
For Chicago-Sky-Blue-6b the same measures were 51.02 (1.78) %, 3.64 (5.37) %, above 20 µM and above 20 µM.
Turning to `NC(Cc1cc(O)c(O)cc1O)C(=O)O` (racemic) [6-Hydroxy-DL-DOPA], under setting [5], the “HC PLpro-NAB SARS-CoV-2 inhibition [%] 20 µM triplicates DTT BUFFER” value was 81.47 (1.21) %. Further, the “HP PLpro-NAB SARS-CoV-2 inhibition [%] 20 µM triplicates L-CYS BUFFER” value under setting [6] was 4.81 (4.61) %. The IC50 runs as follows: under setting [3], above 20 µM; under setting [4], above 20 µM.
As for `Cc1nc2c(=O)n(C)c(=O)nc-2n(C)n1` [3-Methyl Toxoflavin], the “HC PLpro-NAB SARS-CoV-2 inhibition [%] 20 µM triplicates DTT BUFFER” value under setting [5] is on record as 181.38 (6.76) %. Also, the “HP PLpro-NAB SARS-CoV-2 inhibition [%] 20 µM triplicates L-CYS BUFFER” value under setting [6] is reported as -26.71 (3.86) %. The IC50 under setting [3] was determined as 0.074 µM and the half-maximal inhibitory concentration (IC50) under setting [4] is above 20 µM.
In the case of Ro-08-2750, the “HC PLpro-NAB SARS-CoV-2 inhibition [%] 20 µM triplicates DTT BUFFER” value under setting [5] is recorded as 119.29 (1.83) %. Besides, the “HP PLpro-NAB SARS-CoV-2 inhibition [%] 20 µM triplicates L-CYS BUFFER” value under setting [6] is on record as -33.99 (8.82) %. Besides, the IC50 was 0.4 µM under setting [3] and above 20 µM under setting [4].
In the case of `C[C@H]1COC2=C1C(=O)C(=O)c1c2ccc2c1CCCC2(C)C` [Cryptotanshinone], the inhibition at 20 µM was 40.7% under setting [1] and -71.4% under setting [2].
Turning to `CC1(C)C(=O)N=C2C1=C(O)C(=O)c1ccccc12` [BVT-948], the “HC PLpro-NAB SARS-CoV-2 inhibition [%] 20 µM triplicates DTT BUFFER” value under setting [5] is listed as 154.88 (0.27) %. Besides, under setting [6], the “HP PLpro-NAB SARS-CoV-2 inhibition [%] 20 µM triplicates L-CYS BUFFER” value is on record as -16.22 (16.3) %. For the same compound, the IC50 is 0.39 µM under setting [3] and above 20 µM under setting [4].
Consider `Cc1cc(-c2ccc(/N=N/c3ccc4c(S(=O)(=O)O)cc(S(=O)(=O)O)c(N)c4c3O)c(C)c2)ccc1/N=N/c1ccc2c(S(=O)(=O)O)cc(S(=O)(=O)O)c(N)c2c1O` [Evans Blue], for which the inhibition at 20 µM by setting is: under setting [1], 126%; under setting [2], -67.8%. The IC50 is, setting by setting: under setting [3], 8.68 µM; under setting [4], above 20 µM.
With Bacitracin [Bacitracin (Zinc)], the “HC PLpro-NAB SARS-CoV-2 inhibition [%] 20 µM triplicates DTT BUFFER” value under setting [5] was 67.28 (8.42) %. In addition, the “HP PLpro-NAB SARS-CoV-2 inhibition [%] 20 µM triplicates L-CYS BUFFER” value under setting [6] is recorded as 6.99 (8.69) %. The IC50 under setting [3] was found to be 10.2 µM and the IC50 under setting [4] was above 20 µM.
The corresponding values for `CC[N+](C)(CC)CCC[n+]1c(-c2ccccc2)c2cc(N)ccc2c2ccc(N)cc21.[I-].[I-]` [Propidium-Iodide] are 135.55 (3.03) %, 14.90 (7.41) %, 0.24 µM and above 20 µM.
With `COCCn1c2c([n+](Cc3cnccn3)c1C)C(=O)c1ccccc1C2=O` [YM-155], the inhibition at 20 µM runs as follows: under setting [1], 139%; under setting [2], -5.61%. In addition, the IC50 under setting [3] was 17.9 µM and the IC50 under setting [4] was above 20 µM.
`O=C1C(=O)c2ccccc2-c2ccccc21` [9,10-Phenanthrenequinone]: under setting [2], the inhibition at 20 µM is -40.8%. Further, the IC50 under setting [4] is above 20 µM.
As to `O=C1C=CC(=O)c2c(O)cccc21` [Juglone], the inhibition at 20 µM is, setting by setting: under setting [1], 83.7%; under setting [2], -14.8%. In addition, the IC50 by setting is: under setting [3], above 20 µM; under setting [4], above 20 µM.
Turning to `N#CSc1cc(SC#N)c(N)nc1N` [PR-619], the “Inhibitory activity on retest in 1 mM L-cysteine” value is reported as “retained their inhibitory activity”. For the same compound, the “Inhibition in L-cysteine buffer versus DTT buffer (dose-response)” value (1 mM L-cysteine vs 1 mM DTT) is recorded as “did not show variations in inhibition potency or thermal stability”. For the same compound, the “HC PLpro-NAB inhibition [%] 20 μM triplicates 1 mM DTT buffer” value under setting [7] is recorded as 101.31 (1.54) %. Further, the “HP PLpro-NAB inhibition [%] 20 μM triplicates 1 mM L-cys buffer” value under setting [8] is 106.60 (1.05) %. In addition, under setting [9], the IC50 stood at 3.7 µM. The IC50 under setting [10] came out at 1.39 µM.
On to `CC(C)Nc1cccnc1N1CCN(C(=O)c2cc3cc(NS(C)(=O)=O)ccc3[nH]2)CC1` [Delavirdine (mesylate), Delavirdine], for which the IC50 by setting is: (HP PLpro-NAB SARS-CoV-2 IC50 [µM] duplicates L-CYS BUFFER) above 20 µM; (HP PLpro-NAB SARS-CoV-2 IC50 [µM] triplicates DTT BUFFER) above 20 µM.
As to `O=C(O)c1cc(O)c2c(c1)[C@H]([C@H]1c3cc(C(=O)O)cc(O)c3C(=O)c3c(O[C@@H]4O[C@H](CO)[C@@H](O)[C@H](O)[C@H]4O)cccc31)c1cccc(O[C@@H]3O[C@H](CO)[C@@H](O)[C@H](O)[C@H]3O)c1C2=O` [sennoside A], the inhibition at 20 µM (hit confirmation, 20 μM, 1 mM DTT buffer, average (SD), 20 μM PR619 = 100%, DMSO = 0%, read-out: HC PLpro-NAB inhibition [%] 20 μM triplicates 1 mM DTT buffer) amounted to 160% and the inhibition at 20 µM (hit profiling, 20 μM, 1 mM L-cys buffer, average (SD), 20 μM PR619 = 100%, read-out: HP PLpro-NAB inhibition [%] 20 μM triplicates 1 mM L-cys buffer) was determined as 149%.
For `O=c1ccc2[n+]([O-])c3ccc(O)cc3oc-2c1` [Resazurin (sodium salt), Resazurin], the IC50 is above 20 µM under setting [3] and above 20 µM under setting [4].
As for `COc1cc([C@@H]2c3cc4c(cc3[C@@H](O[C@@H]3O[C@@H]5CO[C@@H](C)O[C@H]5[C@H](O)[C@H]3O)[C@H]3COC(=O)[C@H]23)OCO4)cc(OC)c1O` [Etoposide], the IC50 was above 20 µM under setting [3] and above 20 µM under setting [4].
Regarding `O=C(Nc1ccccc1-c1cn2c(CN3CCNCC3)csc2n1)c1cnc2ccccc2n1` [SRT 1720], the “Inhibitory activity on retest in 1 mM L-cysteine” value is “retained their inhibitory activity”. Further, under setting [7], the “HC PLpro-NAB inhibition [%] 20 μM triplicates 1 mM DTT buffer” value is listed as 109.60 (16.57) %. Further, the “HP PLpro-NAB inhibition [%] 20 μM triplicates 1 mM L-cys buffer” value under setting [8] is 169.11 (0.11) %. Also, the IC50 under setting [9] was 0.82 µM. Also, the IC50 under setting [10] was above 20 µM.
Regarding `Nc1ccc(O)c2ncccc12` [PD119507], the “HC PLpro-NAB SARS-CoV-2 inhibition [%] 20 µM triplicates DTT BUFFER” value under setting [5] is 186.40 (4.35) %. Besides, under setting [6], the “HP PLpro-NAB SARS-CoV-2 inhibition [%] 20 µM triplicates L-CYS BUFFER” value is on record as -16.42 (5.8) %. Further, the concentration for half-maximal inhibition (IC50) was 0.065 µM under setting [3] and above 20 µM under setting [4].
Turning to `CC1(C)CCC2=C(O1)C(=O)c1ccccc1C2=O` [Alpha Lapachone], the “HC PLpro-NAB SARS-CoV-2 inhibition [%] 20 µM triplicates DTT BUFFER” value under setting [5] is 146.26 (3.11) %. In addition, under setting [6], the “HP PLpro-NAB SARS-CoV-2 inhibition [%] 20 µM triplicates L-CYS BUFFER” value is listed as -6.97 (8.44) %. For the same compound, the IC50 runs as follows: under setting [3], 4.43 µM; under setting [4], above 20 µM.
